Reference: the supplement of paper PMC10307832

What was measured:
Assay in all cases: relative viability (nuclei count vs DMSO), 5 days (fraction); higher = more cells survive
Sunitinib + Decitabine = compound: CCN(CC)CCNC(=O)c1c(C)[nH]c(/C=C2\C(=O)Nc3ccc(F)cc32)c1C [Sunitinib] + Nc1ncn([C@H]2C[C@H](O)[C@@H](CO)O2)c(=O)n1 [Decitabine] (partner 2 µM)
In short: (§1)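 Five library-drug doses in √10 steps were combined with a fixed anchor-drug dose, or a single drug was given alone, by pin tool to lung cancer cell lines in 1536-well plates the day after seeding. Nuclei were stained and counted after 5 days. Relative viability is the nuclei count in treated wells over that in vehicle wells, taken as the median of duplicate plates.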

Sunitinib + Bortezomib = compound: CCN(CC)CCNC(=O)c1c(C)[nH]c(/C=C2\C(=O)Nc3ccc(F)cc32)c1C [Sunitinib] + CC(C)C[C@H](NC(=O)[C@H](Cc1ccccc1)NC(=O)c1cnccn1)B(O)O [Bortezomib] (partner 0.002 µM)
In short: as §1

Sunitinib + Tozasertib = compound: CCN(CC)CCNC(=O)c1c(C)[nH]c(/C=C2\C(=O)Nc3ccc(F)cc32)c1C [Sunitinib] + Cc1cc(Nc2cc(N3CCN(C)CC3)nc(Sc3ccc(NC(=O)C4CC4)cc3)n2)n[nH]1 [Tozasertib] (partner 0.1 µM)
In short: as §1

Sunitinib + AZD7762 = compound: CCN(CC)CCNC(=O)c1c(C)[nH]c(/C=C2\C(=O)Nc3ccc(F)cc32)c1C [Sunitinib] + NC(=O)Nc1cc(-c2cccc(F)c2)sc1C(=O)N[C@H]1CCCNC1 [AZD7762] (partner 0.2 µM)
In short: as §1

| Cell Line | relative viability (Sunitinib + Decitabine; first compound 0.02 µM) | relative viability (Sunitinib + Decitabine; first compound 0.06325 µM) | relative viability (Sunitinib + Decitabine; first compound 0.2 µM) | relative viability (Sunitinib + Decitabine; first compound 0.6325 µM) | relative viability (Sunitinib + Decitabine; first compound 2 µM) | relative viability (Sunitinib + Bortezomib; first compound 0.02 µM) | relative viability (Sunitinib + Bortezomib; first compound 0.06325 µM) | relative viability (Sunitinib + Bortezomib; first compound 0.2 µM) | relative viability (Sunitinib + Bortezomib; first compound 0.6325 µM) | relative viability (Sunitinib + Bortezomib; first compound 2 µM) | relative viability (Sunitinib + Tozasertib; first compound 0.02 µM) | relative viability (Sunitinib + Tozasertib; first compound 0.06325 µM) | relative viability (Sunitinib + Tozasertib; first compound 0.2 µM) | relative viability (Sunitinib + Tozasertib; first compound 0.6325 µM) | relative viability (Sunitinib + Tozasertib; first compound 2 µM) | relative viability (Sunitinib + AZD7762; first compound 0.06325 µM) | relative viability (Sunitinib + AZD7762; first compound 0.2 µM) | relative viability (Sunitinib + AZD7762; first compound 0.6325 µM) | relative viability (Sunitinib + AZD7762; first compound 2 µM) | relative viability (Sunitinib + AZD7762; first compound 0.02 µM) |
| --- | --- | --- | --- | --- | --- | --- | --- | --- | --- | --- | --- | --- | --- | --- | --- | --- | --- | --- | --- | --- |
| LOU-NH91 | 0.787 | 0.824 | 0.826 | 0.805 | 0.835 | 0.586 | 0.48 | 0.463 | 0.426 | 0.494 | 0.666 | 0.732 | 0.673 | 0.753 | 0.738 | 0.688 | 0.879 | 0.831 | 0.756 |  |
| HCC-15 | 0.639 | 0.829 | 0.708 | 0.671 | 0.677 | 0.941 | 1.16 | 1.17 | 1.02 | 1.05 | 0.407 | 0.371 | 0.468 | 0.411 | 0.651 | 1.28 | 1.37 | 1.09 | 1.41 | 1.17 |
| HCC-827 | 0.324 | 0.314 | 0.31 | 0.322 | 0.292 | 1.05 | 1.15 | 1.04 |  | 1.12 | 0.405 | 0.416 | 0.449 | 0.439 | 0.407 | 0.191 | 0.21 | 0.174 | 0.207 | 0.249 |
| NCI-H1734 | 0.528 | 0.495 | 0.514 | 0.477 | 0.497 | 0.855 | 0.962 | 1.35 | 1.09 | 0.911 | 0.265 | 0.262 | 0.25 | 0.325 | 0.247 | 0.592 | 0.635 | 0.543 | 0.518 | 0.436 |
| NCI-H322M | 0.664 | 0.72 | 0.654 | 0.798 | 0.696 | 1.19 | 1.35 | 1.52 | 1.42 | 1.35 | 0.452 | 0.464 | 0.546 | 0.547 | 0.42 | 0.559 | 0.524 | 0.651 | 0.64 | 0.611 |
| SW 1573 | 0.403 | 0.508 | 0.556 | 0.62 | 0.554 | 0.944 | 1.11 | 1.2 | 1.22 | 1 | 0.153 | 0.22 | 0.205 | 0.155 | 0.195 |  |  |  |  |  |
| NCI-H2126 | 0.589 | 0.572 | 0.532 | 0.592 | 0.579 | 1.07 | 1.19 | 1.16 | 1.15 | 1.13 | 0.846 | 0.852 | 0.963 | 0.92 | 0.81 | 1.07 | 1.21 | 1.03 | 1.02 | 0.937 |
| 201T | 0.838 | 0.91 |  | 0.872 | 0.88 | 1.08 | 1.09 | 1.13 | 1.09 | 1.08 | 0.918 | 0.948 | 1.1 |  | 0.88 | 0.705 | 0.688 | 0.664 | 0.588 | 0.544 |
| NCI-H2009 | 0.349 | 0.364 | 0.371 | 0.424 | 0.373 | 0.973 |  | 1.01 | 1.17 | 1.18 | 0.695 | 0.747 | 0.858 | 0.78 | 0.716 |  |  |  |  |  |
| NCI-H2087 | 0.273 | 0.274 | 0.315 | 0.245 | 0.264 | 0.855 | 0.793 | 0.966 | 0.994 | 1.04 | 0.253 | 0.259 | 0.329 | 0.284 | 0.233 | 1.42 | 1.34 | 1.41 | 1.46 | 1.21 |
| CAL-12T |  |  |  |  |  | 1.04 | 1.06 | 1.07 | 1.21 | 1.05 | 0.324 | 0.302 | 0.314 | 0.324 | 0.213 | 0.663 | 0.65 | 0.731 | 0.76 | 0.648 |
| UMC-11 | 0.553 | 0.551 | 0.583 | 0.737 | 0.597 | 0.61 |  | 0.841 | 0.762 | 0.896 | 0.206 | 0.207 | 0.198 | 0.199 | 0.197 |  |  |  |  |  |
| NCI-H1793 |  | 0.496 | 0.487 | 0.549 | 0.49 |  |  |  |  |  | 0.413 | 0.34 | 0.351 | 0.281 | 0.214 | 0.448 | 0.44 | 0.377 | 0.334 |  |
| SK-LU-1 | 0.571 | 0.688 | 0.635 | 0.651 | 0.603 | 0.959 | 1.26 | 1.38 | 1.36 | 0.982 | 0.377 | 0.424 | 0.433 | 0.379 | 0.332 |  |  |  |  |  |
| NCI-H1437 | 0.566 | 0.606 | 0.624 | 0.514 | 0.628 | 0.567 | 0.643 | 0.514 | 0.494 | 0.551 | 0.391 | 0.302 | 0.408 | 0.39 | 0.41 | 1.14 | 1.15 | 1.13 | 1.07 | 1.09 |
| NCI-H2023 | 0.242 | 0.225 | 0.247 | 0.243 | 0.217 | 0.921 | 1.13 | 1.11 | 1.22 |  | 0.304 | 0.301 | 0.382 | 0.239 | 0.181 |  |  |  |  |  |
| LK-2 | 0.238 | 0.409 | 0.299 | 0.316 | 0.279 |  |  |  |  |  | 0.177 | 0.196 | 0.167 | 0.167 | 0.188 | 0.571 | 0.352 | 0.414 | 0.443 | 0.35 |
| RERF-LC-KJ | 0.713 | 0.743 | 0.651 | 0.683 | 0.777 | 0.994 |  | 1.26 | 1.03 | 1.09 | 0.508 | 0.487 | 0.547 | 0.47 | 0.541 | 1.05 | 1.04 | 0.932 | 1 | 0.959 |
